Test results from patent EP1976513B1 (priority 2006, dated 2007).

These compounds were tested against human serotonin reuptake transporter (Homo sapiens, UniProt P31645) (assay: cell-based). Conditions: Human IC50 (nM) hSERT.
Chain of human serotonin reuptake transporter (P31645 whole entry): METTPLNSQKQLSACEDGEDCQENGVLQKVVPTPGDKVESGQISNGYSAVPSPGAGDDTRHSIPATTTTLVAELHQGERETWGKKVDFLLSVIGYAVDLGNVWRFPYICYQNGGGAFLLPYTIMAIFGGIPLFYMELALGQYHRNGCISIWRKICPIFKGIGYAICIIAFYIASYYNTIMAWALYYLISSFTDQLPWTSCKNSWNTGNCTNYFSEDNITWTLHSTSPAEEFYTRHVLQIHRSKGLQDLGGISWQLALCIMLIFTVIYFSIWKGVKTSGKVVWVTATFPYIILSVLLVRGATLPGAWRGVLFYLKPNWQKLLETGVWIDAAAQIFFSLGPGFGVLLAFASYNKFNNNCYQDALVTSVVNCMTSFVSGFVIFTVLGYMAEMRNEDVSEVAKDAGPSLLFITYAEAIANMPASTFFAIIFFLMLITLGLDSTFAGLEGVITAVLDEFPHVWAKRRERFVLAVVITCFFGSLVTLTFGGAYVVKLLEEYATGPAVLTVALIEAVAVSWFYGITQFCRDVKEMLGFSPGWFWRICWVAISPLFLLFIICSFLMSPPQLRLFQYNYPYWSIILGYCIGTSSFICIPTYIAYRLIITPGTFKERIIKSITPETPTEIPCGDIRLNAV

Row | SMILES | IC50 [nM]
1 | CC(C)CC(N)C1(c2ccc(Cl)cc2)CCCCC1 (single isomer, unassigned) [21 E1, 1-(1-(4-chlorophenyl)cyclohexyl)-3-methylbutan-1-amine] | 9660
2 | CC(C)CC(N)C1(c2ccc(Cl)cc2)CCCCC1 (single isomer, unassigned) [21 E2, 1-(1-(4-chlorophenyl)cyclohexyl)-3-methylbutan-1-amine] | 1240
3 | CNCC1(c2ccc(Cl)c(Cl)c2)CCCC(F)(F)C1 (single isomer, unassigned) [205 E1, 1-(1-(3,4-dichlorophenyl)-3,3-difluorocyclohexyl)-N-methylmethanamine] | 4210
4 | CNCC1(c2ccc(Cl)c(Cl)c2)CCCC(F)(F)C1 (single isomer, unassigned) [205 E2, 1-(1-(3,4-dichlorophenyl)-3,3-difluorocyclohexyl)-N-methylmethanamine] | 1710
5 | CC(C)CC(N)C1(c2ccc(Cl)cc2)CCCCC1 (stereo not shown) [Compound 21, 1-(1-(4-chlorophenyl)cyclohexyl)-3-methylbutan-1-amine] | 2100

Same assay, conditions: recombinant human serotonin transporter (SERT); read-out: Human IC50 (nM) hSERT

Row | SMILES | IC50 [nM]
6 | CC(N)C1(c2ccc(OC(F)(F)F)cc2)CCCCC1 (single isomer, unassigned) [19 E1, 1-(1-(4-(trifluoromethoxy)phenyl)cyclohexyl)ethanamine] | 1510
7 | CC(N)C1(c2ccc(OC(F)(F)F)cc2)CCCCC1 (single isomer, unassigned) [19 E2, 1-(1-(4-(trifluoromethoxy)phenyl)cyclohexyl)ethanamine] | 398
8 | CC(N)C1(c2ccc(-c3ccco3)cc2)CCCCC1 (single isomer, unassigned) [22 E1, 1-(1-(4-(furan-2-yl)phenyl)cyclohexyl)ethanamine] | 63
9 | CC(N)C1(c2ccc(-c3ccco3)cc2)CCCCC1 (single isomer, unassigned) [22 E2, 1-(1-(4-(furan-2-yl)phenyl)cyclohexyl)ethanamine] | 101
10 | CNCC1(c2ccc(Cl)cc2)CCCCC1O (single isomer, unassigned) [136 E1, trans-2-(4-chlorophenyl)-2-((methylamino)methyl)-cyclohexanol] | > 10000
11 | CNCC1(c2ccc(Cl)cc2)CCCCC1O (single isomer, unassigned) [136 E2, trans-2-(4-chlorophenyl)-2-((methylamino)methyl)-cyclohexanol] | > 10000
12 | CNCC1(c2ccc(OC)cc2)CCCCC1O (single isomer, unassigned) [140 E2, trans-2-(4-Methoxyphenyl)-2-((methylamino)methyl)cyclohexanol] | > 10000
13 | CCNCC1(c2ccc(Cl)c(Cl)c2)CCCCC1CO (single isomer, unassigned) [169 E1, (2-(3,4-dichlorophenyl)-2-((ethylamino)methyl)-cyclohexyl)methanol] | 1100
14 | CCNCC1(c2ccc(Cl)c(Cl)c2)CCCCC1CO (single isomer, unassigned) [169 E2, (2-(3,4-dichlorophenyl)-2-((ethylamino)methyl)-cyclohexyl)methanol] | 332
15 | NCC1(c2ccc(Cl)c(Cl)c2)CCCC(O)C1 (single isomer, unassigned) [184 E1, Cis-3-(aminomethyl)-3-(3,4-dichlorophenyl)cyclohexanol] | > 10000
16 | NCC1(c2ccc(Cl)c(Cl)c2)CCCC(O)C1 (single isomer, unassigned) [184 E2, Cis-3-(aminomethyl)-3-(3,4-dichlorophenyl)cyclohexanol] | > 10000
17 | NCC1(c2ccc(Cl)c(Cl)c2)CCCC(O)C1 (single isomer, unassigned) [185 E1, Trans-3-(aminomethyl)-3-(3,4-dichlorophenyl)cyclohexanol] | > 10000
18 | NCC1(c2ccc(Cl)c(Cl)c2)CCCC(O)C1 (single isomer, unassigned) [185 E2, Trans-3-(aminomethyl)-3-(3,4-dichlorophenyl)cyclohexanol] | > 10000
19 | CC(N)C1(c2ccc(OC(F)(F)F)cc2)CCCCC1 (stereo not shown) [Compound 19, 1-(1-(4-(trifluoromethoxy)phenyl)cyclohexyl)ethanamine] | 107
